Reference: patent US6908926B1, “Substituted imidazoles, their preparation and use” (Novo Nordisk A/S, priority 1999, dated 2005)

Compound | melting point [°C]
COc1cccc(COC(=O)N2CCc3[nH]cnc3C2)c1.O=C(O)C(=O)O [Example 19, 4,5,6,7-Tetrahydroimidazo[4,5-c]pyridine-5-carboxylic Acid 3-methoxybenzyl Ester Oxalate] | 163 to 165
Cc1cccc(CCOC(=O)N2CCc3[nH]cnc3C2)c1.O=C(O)C(=O)O [Example 24, 4,5,6,7-Tetrahydroimidazo[4,5-c]pyridine-5-carboxylic Acid 2-(3-methylphenyl)ethyl Ester Oxalate] | 155 to 157
Cc1ccc(COC(=O)N2CCc3[nH]cnc3C2)c(C)c1.O=C(O)C(=O)O [Example 28, 4,5,6,7-Tetrahydroimidazo[4,5-c]pyridine-5-carboxylic Acid 2,4-dimethylbenzyl Ester Oxalate] | 176 to 178
O=C(O)C(=O)O.O=C(OCCc1cccs1)N1CCc2nc[nH]c2C1 [Example 36, 4,5,6,7-Tetrahydroimidazo[4,5-c]pyridine-5-carboxylic Acid 2-thiophen-2-ylethyl Ester Oxalate] | 173 to 175
O=C(O)C(=O)O.O=C(OCCc1ccsc1)N1CCc2nc[nH]c2C1 [Example 37, 4,5,6,7-Tetrahydroimidazo[4,5-c]pyridine-5-carboxylic Acid 2-thiophen-3-ylethyl Ester Oxalate] | 193 to 194
O=C(O)C(=O)O.O=C(OCCC1CCCCC1)N1CCc2nc[nH]c2C1 [Example 40, 4,5,6,7-Tetrahydroimidazo[4,5-c]pyridine-5-carboxylic Acid 2-cyclohexylethyl Ester Oxalate] | 174 to 176
O=C(O)C(=O)O.O=C(OCC1CCCCC1)N1CCc2nc[nH]c2C1 [Example 41, 4,5,6,7-Tetrahydroimidazo[4,5-c]pyridine-5-carboxylic Acid Cyclohexylmethyl Ester Oxalate] | 176 to 178

Further lines, results first:

melting point [°C] | Compound
169 to 171 | Cc1cccc(COC(=O)N2CCc3[nH]cnc3C2)c1.O=C(O)C(=O)O [Example 21, 4,5,6,7-Tetrahydroimidazo[4,5-c]pyridine-5-carboxylic Acid 3-methylbenzyl Ester Oxalate]
166 to 168 | CC(C)c1ccc(COC(=O)N2CCc3nc[nH]c3C2)cc1.O=C(O)C(=O)O [Example 31, 4,5,6,7-Tetrahydroimidazo[4,5-c]pyridine-5-carboxylic Acid 4-isopropylbenzyl Ester Oxalate]
171 to 173 | CCc1ccc(COC(=O)N2CCc3nc[nH]c3C2)cc1.O=C(O)C(=O)O [Example 34, 4,5,6,7-Tetrahydroimidazo[4,5-c]pyridine-5-carboxylic Acid 4-ethylbenzyl Ester Oxalate]
173 to 175 | O=C(O)C(=O)O.O=C(OCc1ccccc1Cl)N1CCc2nc[nH]c2C1 [Example 42, 4,5,6,7-Tetrahydroimidazo[4,5-c]pyridine-5-carboxylic Acid 2-chlorobenzyl Ester Oxalate]
